# Data from patent US20180214400A1, “THE USE OF KAURANES COMPOUNDS IN THE MANUFACTURE OF MEDICAMENT FOR TREATMENT OF CADIAC HYPERTROPY AND PULMONARY HYPERTENSION” (KEY-PHARMA BIOMEDICAL INC., priority 2015, published 2018).
# Assays:
# BNP = assay: Isoproterenol-induced cardiomyocyte hypertrophy (BNP RT-PCR, western blot, size); type: cell-based
# Excerpt: BNP is an important marker for hypertrophy.
# microRNA21 = microRNA21 and fibrosis at penumbra region of ischemic heart; type: in vivo
# Excerpt: This effect of compound A has never been reported in prior art.
# [1] = tested on: cardiomyocyte from guinea pig; assay: Electrophysiology in guinea pig cardiomyocyte after ischemia and reperfusion; type: cell-based
# Excerpt: This invention also disclosed that in cardiomyocyte from guinea pig, that compound A can reduce elongated QT segment and increased QT variations, further it prevent prolonged action potential, decrease resting potential and suppressed Herg (Ikr) currents as result of ischemia and reperfusion. Compound A can also as an scavenger to reduce ROS (reactive oxygen species). Therefore, it can be used for treatment of abnormal ECG in clinic diagnosed with above or used for diseases or clinic procedures which may involve above mentioned mechanism.
# male rats = assay: Penile erection in male rats; type: in vivo; settings: relative higher dose
# [2] = tested on: acute ischemia-reperfusion heart injuries; settings: cited from earlier work
# TAC-exposed rats = assay: ECG alterations induced by TAC; type: in vivo; settings: for QT dispersion and QTc dispersion increase induced by TAC: TAC after 9 weeks; for QRS duration and R amplitude: TAC at 9 weeks
# Protocol: Three or nine weeks after TAC operation, rats were anesthetized with pentobarbital sodium (i.p. 40 mg/kg). The electrocardiogram (ECG) was measured using the II Einthoven lead. Three stainless steel 22G needle electrodes were localized in the insertion of the right (G1) and left (GND) front legs, and in the left (G2) rear leg. Accordingly, 10 min of ECG recordings were digitally acquired at 2 kHz prior to any maneuver. Heart rate variability-Spectral Analysis was performed using fast Fourier transformation. Oscillatory components were separated into very low frequency (VLF; <0.04 Hz), low frequency (LF; 0.04-0.6 Hz), or high frequency (HF; 0.6-2.5 Hz) bands. HRV components were expressed in normalized units (n.u.) as a percentage of total power minus the VLF component.
# [3] = tested on: hypertrophy cardiomyocytes; assay: Cytosol Ca++ in hypertrophy cardiomyocytes; type: cell-based
# Excerpt: This invention disclosed a novel use of inotropic medicine selectively that is compound A can be used to improve the cardiac function in a deteriorative hypertrophy heart without increase cytosol Ca++ or oxygen consumption. In addition it was not worsening the ECG instead it improve the ECG in hypertrophy heart. This is due to that compound A can reduce cardiomyocytes cytosol Ca++ level but enhance only the peak of Ca++ transient during each contraction in hypertrophy cardiomyocytes. This novel finding makes compound A different from other known traditional inotropic medicine such digitalis and beta agonists such as epinephrine.
# TAC rats = assay: TAC-induced cardiac hypertrophy and cardiomyocyte dilation in rats; type: in vivo, Wistar rats; settings: for cardiac and myocyte hypertrophy: 3-week TAC groups; for increment of cardiomyocyte cross-sectional area: 3-week TAC; for HW / HW/BW: 3 wk TAC
# Protocol: TAC between the innominate artery and the left carotid artery was conducted to induce pressure overload for 3 weeks (3-week TAC) or 9 weeks (9-week TAC). Sham control animals underwent the same operation, but without aortic constriction. All surgical procedures were performed with animals anesthetized with 3% pentobarbital sodium injected intraperitoneally (i.p. 40 mg/kg). During the surgery period, rats were intubated and ventilated with a rodent ventilator (Harvard Apparatus, Holliston, Mass., USA).
# Both 3-week and 9-week TAC-exposed rats were randomly divided into five groups (n=8-10 rats) including a TAC vehicle control, COMPOUND A, low (TAC+COMPOUND A (L), 1 mg/kg/d), middle (TAC+COMPOUND A (M), 2 mg/kg/d), high (TAC+COMPOUND A (H), 8 mg/kg/d) dose group respectively, and sildenafil (TAC+Sil, 70 mg/kg/d) as a positive control group. Sham controls were all treated with vehicle. Acute and chronic mortality from the TAC procedure was <5%. The treat group was intra-gastric administrated with sodium salt of compound A which was solved in a mixture of saline and organic solvent of the same volume (1:1, 0.5 ml) and sildenafil which was solved in distilled water. All drugs and vehicle treatment were given twice a day after surgery for three days as designed. The animals were examined at 3 weeks and 9 weeks after surgery accordingly. At the end of the observation periods and after hemodynamic measurement in vivo, all animals were sacrificed and hearts were explanted for further Analyses.
# Tissue sections of rat hearts were fixed in 10% neutral-buffered formalin, embedded in paraffin, cut into […] serial sections, and then stained with haematoxylin and eosin (H&E), picrosirius red or phalloidin. Nikon system and Zeiss confocal microscope were used to capture digital images. Stained with H&E was to evaluate cell size, stained with picrosirius red (sigma CA) was to test fibrosis using standard procedure and the amount of F-actin was stained with phalloidin. We determined cross sectional cell area and interstitial collagen fraction using computer-assisted image analysis (Image-Pro Plus software), with the observer blinded as to tissue source. At least four or five different hearts were quantified for analysis.
# Adult Wistar rats were subjected to TAC for 3 weeks and treated with vehicle, COMPOUND A or sildenafil, respectively. […] The cardiac and myocyte hypertrophy were ameliorated by compound A or sildenafil in the 3-week TAC groups (Table 1).
# [4] = tested on: cerebral I/R injured rats; assay: Late phase cerebral I/R injury (7 days) in rats; type: in vivo; settings: 7 days after I/R
# Protocol: Reactive astrogliosis is a common pathological process in late phase of cerebral I/R injury, which contributes to further neuronal damages. It is also seen in neuronal degenerative disease such as Alzheimer's disease in the present invention, compound A given consecutively for 7 days in cerebral I/R injured rats. […] The therapeutic effects of either single or consecutive 7 treatments with compound A were Analyzed and compared at 7 days after I/R injury.
# sarcolemma KATP channel = assay: Sarcolemma KATP channel effect
# Excerpt: This invention disclosed exclusively that compound A per se had no effect on either sarcolemma or mitochondrial KATP channel. Instead, compound A is acting only as a sensitizer which render the KATP channel response greater to known KATP channel openers, such as pinacidil and to change of ATP.
# [5] = tested on: embolic middle cerebral artery occlusion; settings: oral, seven consecutive days starting 2 h or 24 h after occlusion; cited from earlier work
# cGMP = cGMP ELISA in neonatal rat fibroblasts; type: cell-based; settings: 100 um, 3 h
# Protocol: Neonatal rat cardiac fibroblasts were isolated from 1-2-day-old Sprague-Dawley rats as described previously. Briefly, hearts from newborn 1-2-day-old Sprague-Dawley rats were minced on ice, and cells were isolated by trypsin incubation at 37° C. Non-cardiomyocytes were separated from the cardiomyocytes by differential pre-plating, and then cardiomyocytes were removed with fibroblasts seeded in culture dishes. The cells were passaged after 3 days, using a 0.05% trypsin solution. Cells were cultured in DEME/F12 medium with 5% fetal calf serum, and maintained at 37° C., 5% CO2 condition. cGMP levels in the neonatal rat fibroblasts after treated with vehicle or compound A or sildenafil were measured with an ELISA kit following the manufacture's instruction. Quiescent cells were cultured with different doses of compound A ([…]) or sildenafil ([…]) for 3 h. After treatment, the cells were lysed with 0.1N HCl, and performed cGMP ELISA assay.
# [6] = tested on: hypoxia-induced PHT in rats; settings: chronic hypoxia; cited from earlier work
# [7] = comp. A (L) 1 mg/kg/d intra-gastric
smiles,measurement,setting,value
"C[C@@]12CC[C@@H]3[C@@](CC[C@H]4[C@@]3(C)CCC[C@@]4(C)C(=O)O)(CC1=O)C2 [Compound A, (4α,8β,13β)-13-methyl-16-oxo-17-norkauran-18-oic acid]",increase of BNP production and BNP mRNA expression,"BNP; cardiomyocytes, isoproterenol stimulus",greatly reduce
same,increased size of myocardium induced by isoproterenol,BNP; isoproterenol,significantly reduce
same,fibrosis at the same region,microRNA21,significant amelioration
same,microRNA21,microRNA21; penumbra region of the ischemic heart,significant reduced
same,decrease resting potential,[1],prevent
same,elongated QT segment and increased QT variations,[1],reduce
same,prolonged action potential,[1],prevent
same,suppressed Herg (Ikr) currents,[1],prevent
same,penile erection,male rats,long lasting penile erection
same,cardioprotective effect and arrhythmia,[2],cardioprotective effect
same,QT dispersion and QTc dispersion increase induced by TAC,TAC-exposed rats,reversed such effects
same,QRS duration and R amplitude,TAC-exposed rats,trended normal
same,cardiomyocytes cytosol Ca++ level,[3],reduce
same,peak of Ca++ transient during each contraction,[3],enhance
same,cardiac and myocyte hypertrophy,TAC rats,ameliorated
same,increment of cardiomyocyte cross-sectional area,TAC rats; 1 mg/kg,15.1%
same,increment of cardiomyocyte cross-sectional area,TAC rats; 2 mg/kg,4.1%
same,increase of cardiomyocyte cross-sectional area comparing to Sham rats,"TAC rats; 3 weeks TAC rats, dose not stated (TAC alone 76%)",10%
same,HW,TAC rats; [7],0.72 ± 0.03 g
same,HW/BW,TAC rats; [7],2.862 ± 0.099 mg/g
same,"I/R injury, consecutive 7 treatments comparing to single treatment",[4],significantly improved
same,accumulation of activated astrocytes,[4]; consecutive treatments,significantly inhibited
same,infarct volume,[4]; given consecutively for 7 days,reduction
same,neurological behavior and cellular morphology,[4]; given consecutively for 7 days,improvement
same,neuronal survival,[4]; given consecutively for 7 days,enhancement
same,effect on sarcolemma KATP channel per se,sarcolemma KATP channel,had no effect
same,KATP channel response to known openers such as pinacidil and to change of ATP,sarcolemma KATP channel; sarcolemma or mitochondrial not distinguished,sensitizer
"CCCc1nn(C)c2c(=O)[nH]c(-c3cc(S(=O)(=O)N4CCN(C)CC4)ccc3OCC)nc12 [sildenafil, reference compound]",infarct volume,[5],without any effect
same,neurological recovery,[5],significantly enhanced
same,Stimulated production of cGMP,cGMP,141 ± 27%
same,rise in pulmonary artery pressure and vascular remodeling,[6],attenuated
same,QT dispersion and QTc dispersion increase induced by TAC,TAC-exposed rats,did not show similar protective effect
same,QRS duration and R amplitude,TAC-exposed rats,trended normal
same,cardiac and myocyte hypertrophy,TAC rats,ameliorated
same,increment of cardiomyocyte cross-sectional area,TAC rats; 70 mg/kg,16.3%
same,HW,TAC rats; sildenafil 70 mg/kg/d,0.76 ± 0.04 g
same,HW/BW,TAC rats; sildenafil 70 mg/kg/d,2.86 ± 0.117 mg/g
